According to patent US20040225017A1, “Chloramine T based teat cleaner and related process” (priority 2003, published 2004):

Columns and labels:
teat area of animals = conditions: in vivo
[1] = pH at which the solution buffers out; format: physicochemical; conditions: in solution, residual on teat surface

- pH at which it naturally buffers out [1]: about 9
Compound: Cc1ccc(S(=O)(=O)[N-]Cl)cc1.[Na+] [CHT, Chloramine T]
- irritation of the teat area (teat area of animals): do not irritate the teat area
